Assay results published in ChEMBL document CHEMBL4382235, “Design, synthesis and biological evaluation of novel 1-phenyl phenanthridin-6(5H)-one derivatives as anti-tumor agents targeting TOPK” (Eur J Med Chem, 2019).

Experiments:
Assay in all cases: cells
[1] = system: A549; details: Homo sapiens, A549, 72 h
Description: Antiproliferative activity against human A549 cells after 72 hrs by MTT assay

[2] = system: HCT-116; details: Homo sapiens, HCT-116, 72 h
Description: Antiproliferative activity against human HCT116 cells after 72 hrs by MTT assay

[3] = system: HCT-15; details: Homo sapiens, HCT-15, 72 h
Description: Antiproliferative activity against human HCT15 cells after 72 hrs by MTT assay

Compound | IC50 [1] [nM] | IC50 [2] [nM] | IC50 [3] [nM]
COc1cc(C)c2[nH]c(=O)c3ccccc3c2c1-c1ccc([C@@H](C)N)cc1 | > 1000 | > 1000 | 
C[C@@H](CN(C)C)c1ccc(-c2c(O)cc(Cl)c3[nH]c(=O)c4ccccc4c23)cc1 | > 1000 | > 1000 | > 1000
Cc1cc(O)c(-c2ccc([C@@H](C)CN)cc2)c2c1[nH]c(=O)c1c(N(C)C)cccc12 | > 1000 | > 1000 | 
COc1cc(C)c2[nH]c(=O)c3ccccc3c2c1-c1ccc(C2(CN)CC2)cc1 | 894 | > 1000 | 
C[C@H](c1ccc(-c2c(O)cc(Cl)c3[nH]c(=O)c4ccccc4c23)cc1)N(C)C | > 1000 | > 1000 | > 1000
Cc1ccc2c(c1)c(=O)[nH]c1c(C)cc(O)c(-c3ccc([C@@H](C)CN)cc3)c12 | > 1000 | 962 | 
Cc1ccc2c(c1)c(=O)[nH]c1c(C)cc(O)c(-c3ccc([C@@H](C)N)cc3)c12 | > 1000 | 571 | 
C[C@@H](N)c1ccc(-c2c(O)cc(Cl)c3[nH]c(=O)c4ccccc4c23)cc1 | 600 | > 1000 | 801
Cc1cc(O)c(-c2ccc([C@@H](C)N)cc2)c2c1[nH]c(=O)c1ccccc12 | 920 | > 1000 | > 1000
CN(C)CC1(c2ccc(-c3c(O)cc(Cl)c4[nH]c(=O)c5c(O)cccc5c34)cc2)CC1 | 898 | > 1000 | 
C[C@@H](CN)c1ccc(-c2c(O)cc(Cl)c3[nH]c(=O)c4ccccc4c23)cc1 | > 1000 | 636 | 309
Cc1ccc2c(c1)c(=O)[nH]c1c(C)cc(O)c(-c3ccc([C@@H](C)CN(C)C)cc3)c12 | > 1000 | 830 | 
Cc1cc(O)c(-c2ccc(C3(CN(C)C)CC3)cc2)c2c1[nH]c(=O)c1c(N(C)C)cccc12 | > 1000 | > 1000 | 

Now those with a lower IC50 [1], led by results:

IC50 [1] [nM] | IC50 [2] [nM] | IC50 [3] [nM] | Compound
470 | 469 | 397 | Cc1cc(O)c(-c2ccc([C@@H](C)N(C)C)cc2)c2c1[nH]c(=O)c1c(C)cccc12
406 | 141 |  | Cc1cc(O)c(-c2ccc(C3(CN(C)C)CC3)cc2)c2c1[nH]c(=O)c1c(O)cccc12
360 | 357 | 278 | COc1cc(C)c2[nH]c(=O)c3ccccc3c2c1-c1ccc([C@@H](C)CN)cc1
317 | 274 | 467 | Cc1ccc2c(=O)[nH]c3c(C)cc(O)c(-c4ccc([C@@H](C)N(C)C)cc4)c3c2c1
287 | 419 | 337 | Cc1cc(O)c(-c2ccc([C@@H](C)CN(C)C)cc2)c2c1[nH]c(=O)c1c(C)cccc12
136 | 44.7 |  | Cc1cc(O)c(-c2ccc(C3(CN)CC3)cc2)c2c1[nH]c(=O)c1c(O)cccc12
113 | 215 | 76 | Cc1cc(O)c(-c2ccc([C@@H](C)CN(C)C)cc2)c2c1[nH]c(=O)c1c(O)cccc12
82.5 | 102 | 96.7 | Cc1cc(O)c(-c2ccc([C@@H](C)N)cc2)c2c1[nH]c(=O)c1c(O)cccc12
